Measured values: PMC10974995 (Pathogens, 2024)
In brackets after ≈: the same amount, converted by molar mass. Like-named read-outs stand apart in the source and are kept apart here.

Key:
[1] = tested on: PK-15 (porcine kidney epithelial cells) and/or FFL (feline fetus lung cells); experiment: cells; conditions: Sus scrofa
Rat = conditions: po; cited from earlier work
[2] = tested on: differentiated PK-15 cells
boar sperm [3] = experiment: cells
[4] = tested on: differentiated PK-15 cells; experiment: cells; conditions: Sus scrofa, PK-15, read-out: Mitochondrial Toxicity 1d (EC50, acceleration of glycolysis and depolarization of mitochondria)
Fish = conditions: cited from earlier work
boar sperm [5] = tested on: boar sperm
[6] = tested on: PK-15 (porcine kidney epithelial cells) and/or FFL (feline fetus lung cells)
[7] = tested on: boar sperm and PK-15 cells
boar sperm [8] = conditions: cited from earlier work
rodents = conditions: in vivo; cited from earlier work
[9] = PK-15, 48 h, read-out: EC50 In Vitro ICP 2d
[10] = 72 h, read-out: EC50 Ex Vivo BSMI 1–3d
[11] = PK-15, read-out: EC50 In Vitro ICP, positive controls, mean of 10 or 11 measurements
[12] = read-out: EC50 Ex Vivo BSMI, positive controls, mean of 10 or 11 measurements

Compound | EC50 [1, 9] [µg/mL] | Toxicity In Vivo LD50 Rat p.o. (Rat) [mg/kg] | Mitochondrial toxicity after testing with somatic cells [2] | EC50 (boar sperm [3]; [10]) [µg/mL] | EC50 [4] [µg/mL] | In Vivo (toxicity to experimental animals), xenobiotic chemicals (Fish) | Toxicity In Vivo LD50 Fish (Fish) [mg/L] | Ex Vivo BSMI 1–3d, toxic (+) / nontoxic (−), xenobiotic chemicals (boar sperm [5]; pig (boar)) | In Vitro ICP 2d, toxic (+) / nontoxic (−), xenobiotic chemicals [6] | Toxicity profile of pure toxins and chemicals in the BSMI and ICP assays [7] | In Vivo (toxicity to experimental animals), mycotoxins and fungal metabolites (Rat) | Ex Vivo BSMI 1–3d, toxic (+) / nontoxic (−), microbial metabolites (boar sperm [5]; pig (boar)) | In Vitro ICP 2d, toxic (+) / nontoxic (−), microbial metabolites [6] | EC50 [1, 11] [µg/mL] | EC50 (boar sperm [3]; [12]) [µg/mL] | further results
CCCCCCCCCC[N+](C)(C)CCCCCCCCCC [DDAC, Didecyl- dimethyl- ammonium- chloride] | 0.5 | 238 | Mitochondrial toxicity was recorded | 1 | 1 | + (key: LD50 Fish Inhaled <10 μg mL ^–1 = Toxic in vivo Marked as +.) | 0.5 | (+) 1 (key: (+): For the xenobiotic chemicals, EC50 values < 10 µg mL^−1 and <20 µg mL^−1 were considered as toxic in the BSMI assay and in the ICP assay, respectively; nontoxic as (−)) | (+) 0.5 (key: (+): For the xenobiotic chemicals, EC50 values < 10 µg mL^−1 and <20 µg mL^−1 were considered as toxic in the BSMI assay and in the ICP assay, respectively; nontoxic as (−)) | highly toxic in both assays |  |  |  |  |  | 
CC(C)C[C@H]1OC(=O)[C@H](C(C)C)NC(=O)[C@H](C(C)C)OC(=O)[C@@H](C)NC(=O)[C@@H](CC(C)C)OC(=O)[C@H](C(C)C)NC(=O)[C@H](C(C)C)OC(=O)[C@@H](C)NC(=O)[C@@H](CC(C)C)OC(=O)[C@H](C(C)C)NC(=O)[C@H](C(C)C)OC(=O)[C@@H](C)NC1=O [Cereulide] |  |  |  |  |  |  |  |  |  |  |  |  |  |  |  | Toxicity in sperm motility tests (boar sperm [8]): toxic; Toxicity to rodents (rodents): non-toxic
C[C@@H]1Cc2c(Cl)cc(C(=O)N[C@@H](Cc3ccccc3)C(=O)O)c(O)c2C(=O)O1 [Ochratoxin A] | > 50 | 20 |  | > 50 |  |  |  |  |  | not detected in our assays | + (key: LD50 rat p.o. <1000 mg kg ^–1 Classified as Toxic in vivo +.) | (−) >50 | (−) >50 |  |  | 
Oc1cc(Cl)ccc1Oc1ccc(Cl)cc1Cl [Triclosan, Triclorooxy-phenylether] | 20 (≈ 69.1 µM) | 3700 | Mitochondrial toxicity was recorded | 1 (≈ 3.45 µM) | 5 (≈ 17.3 µM) | + (key: LD50 Fish Inhaled <10 μg mL ^–1 = Toxic in vivo Marked as +.) | 0.5 | (+) 1 (key: (+): For the xenobiotic chemicals, EC50 values < 10 µg mL^−1 and <20 µg mL^−1 were considered as toxic in the BSMI assay and in the ICP assay, respectively; nontoxic as (−)) | 20 (−) |  |  |  |  | 13 (≈ 44.9 µM) | 1 (≈ 3.45 µM) | Sperm motility relative to the negative control (boar sperm [5]): < 20%
CC(C)[C@H]1C(=O)O[C@H](C(C)C)C(=O)N(C)[C@@H](C(C)C)C(=O)O[C@H](C(C)C)C(=O)N(C)[C@@H](C(C)C)C(=O)O[C@H](C(C)C)C(=O)N1C [Enniatin B] | 15 (≈ 23.4 µM) | 350 |  | 0.5 (≈ 0.781 µM) | 2 (≈ 3.13 µM) |  |  |  |  |  | + (key: LD50 rat p.o. <1000 mg kg ^–1 Classified as Toxic in vivo +.) | (+) 0.5 (key: (+): For the microbial metabolites, EC50 < 5 µg mL^−1 and <10 µg mL^−1 were considered as toxic in the BSMI and ICP assays, respectively; nontoxic as (−)) | (−) 15 | 18 (≈ 28.1 µM) | 0.6 (≈ 0.938 µM) | 
Alamethicin |  | 80 |  |  |  |  |  |  |  | toxic in both the BSMI and ICP tests | + (key: LD50 rat p.o. <1000 mg kg ^–1 Classified as Toxic in vivo +.) |  | (+) 6 (key: (+): For the microbial metabolites, EC50 < 5 µg mL^−1 and <10 µg mL^−1 were considered as toxic in the BSMI and ICP assays, respectively; nontoxic as (−)) |  |  | EC50 Ex Vivo BSMI 1–3d (boar sperm [5]): (+) 0.5 μg mL^–1; Ex Vivo BSMI 1–3d, toxic (+) / nontoxic (−), microbial metabolites (boar sperm [5]): (+) 0.5 (key: (+): For the microbial metabolites, EC50 < 5 µg mL^−1 and <10 µg mL^−1 were considered as toxic in the BSMI and ICP assays, respectively; nontoxic as (−)); EC50 In Vitro ICP 2d [6]: (+) 6 μg mL^–1
